Reference: US6444651B1, “Antimicrobial agents for eucaryotic microorganisms and methods of growth suppression of eucaryotic microorganisms using these agents” (Asama Chemical Co., Ltd., priority 1997, dated 2002)

Tested on: Fungi
Experiment: Preservation tests for milky-lotion type hair tonics (Example 9)
Design: key: +: Fungi appeared
Details: day 14; 37° C.; DNA 0.03%, control 0.1% Ethyl p-hydroxy benzoate
Description: A milky-lotion type hair tonic was prepared using the components described below. It was manufactured under the open system since microbial infection from the air was expected.
The oil phase (A) and aqueous phase (B) were heated to 85° C., respectively. Then, (A) and (B) were mixed and agitated to emulsification at the same temperature. A hair tonic was prepared after the mixture was cooled down to normal temperature.
The hair tonic prepared was poured into a bottle with 0.03% of the DNA. The bottle was sealed and kept at 37° C. for preservation tests. 0.1% Ethyl p-hydroxy benzoate was added to the hair tonic as a control instead of the DNA.

CCOC(=O)c1ccc(O)cc1 [Control, Ethyl p-hydroxy benzoate]
appearance of fungi in hair tonic: +
